{
  "source": "patent US6518302B1",
  "about": "“Remedies” (Takara Shuzo Co., Ltd., priority 1999, dated 2003)",
  "key": {"[1]": {"system": "HL-60 (ATCC CCL-240) cells", "test": "Measurement of apoptotic cells using FACScan", "type": "cell-based, Human", "conditions": "HL-60 cells, 24 hours", "description": "(§1) HL-60 (ATCC CCL-240) cells were cultured at 37° C. in RPMI 1640 medium (Bio Whittaker) containing 10% fetal calf serum (JRH) which had been treated at 56° C. for 30 minutes and suspended in RPMI 1640 medium at a concentration of 2.5×10^5 cells/4.5 ml. […] each of aqueous solutions of the compound (2) at a concentration of 10, 50 or 100 mM, the compound (7) at a concentration of 500, 1000 or 1500 μM, the compound (9) at a concentration of 750, 1500 or 3000 μM, the compound (11) at a concentration of 750, 1500 or 3000 μM, or the compound (14) at a concentration of 750, 1500 or 3000 μM was added to 4.5 ml of the suspension. The mixtures were incubated at 37° C. for 24 hours in the presence of 5% CO2. Measurement of apoptotic cells using FACScan as described in Saibo Kogaku, Bessatsu (Cell Technology, Suppl.) Jikken Protocol Series: Apoptosis Jikken Protocol (Experimental Protocol Series: Experimental Protocols for Apoptosis) (Shujun-sha) pp. 129-130 and analysis of DNA fragmentation as described in Bio Manual UP Series: […] Apoptosis Jikken-ho (Bio Manual UP Series: Current Experimental Methods for Apoptosis) (Yodo-sha) pp. 61-63 were carried out using cells cultured for 24 or 48 hours in the same manner as that described above."}, "[2]": {"system": "Human promyelocytic leukemia HL-60 cells", "test": "Antiproliferation activity against HL-60 cells (MTT method)", "type": "cell-based", "conditions": "48 hour incubation", "description": "Human promyelocytic leukemia HL-60 cells (ATCC CCL-240) were cultured at 37° C. in RPMI 1640 medium (Gibco) containing 10% of fetal calf serum (JRH Bioscience) which had been treated at 56° C. for 30 minutes, and suspended in the same medium at a concentration of 5000 cells/90 μl. Each 90 μl portion of the suspension was distributed into each well of a 96-well plate (Falcon). To the suspension in each well was added 10 μl of one the following samples, and incubated at 37° C. in the presence of 5% CO2. The samples were 2-, 4-, 8-, 16-, 32-, 64- or 128-dilutions of filter-sterilized 200 mM aqueous solution of the compound (2) obtained in Example 1, 50 mM aqueous solution of the compound (7), 50 mM aqueous solution of the compound (9), 100 mM aqueous solution of the compound (11), 100 mM aqueous solution of the compound (14), 20 mM aqueous solution of the compound (17), 12.5 mM aqueous solution of the compound (19) or 12.5 mM aqueous solution of the compound (21) with sterile water, as well as water. After 48 hour from the initiation of the incubation, the numbers of viable cells calculated based on the absorbance measured according to the MTT method as described in “Apoptosis Jikken Protocol” (Syuzyun-sha, Seiichi Tanuma, ed., pp. 156 (1994)) were compared each other."}, "[3]": {"system": "HL-60 (ATCC CCL-240) cells", "test": "Apoptosis morphology in HL-60 cells under optical microscope", "type": "cell-based, Human", "conditions": "24 hours", "description": "HL-60 (ATCC CCL-240) cells were cultured at 37° C. in RPMI 1640 medium (Bio Whittaker) containing 10% fetal calf serum (JRH) which had been treated at 56° C. for 30 minutes and suspended in RPMI 1640 medium at a concentration of 2.5×10^5 cells/4.5 ml. […] each of aqueous solutions of the compound (2) at a concentration of 10, 50 or 100 mM, the compound (7) at a concentration of 500, 1000 or 1500 μM, the compound (9) at a concentration of 750, 1500 or 3000 μM, the compound (11) at a concentration of 750, 1500 or 3000 μM, or the compound (14) at a concentration of 750, 1500 or 3000 μM was added to 4.5 ml of the suspension. The mixtures were incubated at 37° C. for 24 hours in the presence of 5% CO2. The cultured cells were examined under an optical microscope."}, "[4]": {"system": "HL-60 (ATCC CCL-240) cells", "test": "Analysis of DNA fragmentation", "type": "cell-based, Human", "conditions": "HL-60 cells", "description": "as §1"}, "[5]": {"system": "HL-60 (ATCC CCL-240) cells", "test": "Viability of HL-60 cells by Trypan Blue staining", "type": "cell-based", "conditions": "Homo sapiens, read-out: Viability50, concentration that results in a viability of 50%", "description": "HL-60 (ATCC CCL-240) cells were cultured at 37° C. in RPMI 1640 medium (Bio Whittaker) containing 10% fetal calf serum (JRH) which had been treated at 56° C. for 30 minutes and suspended in RPMI 1640 medium at a concentration of 2.5×10^5 cells/4.5 ml.\n[…] each of aqueous solutions of the compound (2) at a concentration of 10, 50 or 100 mM, the compound (7) at a concentration of 500, 1000 or 1500 μM, the compound (9) at a concentration of 750, 1500 or 3000 μM, the compound (11) at a concentration of 750, 1500 or 3000 μM, or the compound (14) at a concentration of 750, 1500 or 3000 μM was added to 4.5 ml of the suspension. The mixtures were incubated at 37° C. for 24 hours in the presence of 5% CO2.\nA portion of the cells cultured for 24 or 48 hours as described in Example 4 was stained with 0.4% Trypan Blue and examined under an optical microscope. The number of viable cells which were not stained and the number of dead cells which were stained blue were counted. The concentration of each of the compounds (2), (7), (9), (11) and (14) that results in a viability of 50% (Viability50 mM) was determined."}, "[6]": {"test": "Conversion into DGE in culture medium (thin-layer chromatography)", "type": "in vitro ADME", "conditions": "10 mM in RPMI 1640 medium with 10% calf serum, 37° C., 4 hours", "description": "The compound (7) or the compound (9) synthesized in Example 1 was dissolved at a final concentration of 10 mM in RPMI 1640 medium supplemented with 10% calf serum. These samples were allowed to stand at 37° C. for 4 hours. […] each of the samples was then subjected to thin-layer chromatography using chloroform:methanol=5:1 as a developing solvent. Detection was carried out using orcinol-sulfuric acid.\nFor each sample, a spot with Rf value of 0.5, the same value as that for the compound of general formula IV in which Z is CH2OH and Y is H (L-glycero-1,5-epoxy-1αβ,6-dihydroxy-cis-hex-3-en-2-one, hereinafter referred to as DGE), was detected."}},
  "note": "Where two headings read alike, the source gives them in different places.",
  "data": [
    {"smiles": "O=C[C@H](O)[C@H]1OC[C@@H](O)[C@@H]1O", "note": "[Compound (2), 3,6-anhydro-D-galactose, reference compound]", "values": [
      {"measurement": "final concentration at which apoptotic cells were observed", "setting": "[1]", "result": "≥ 5", "unit": "mM"},
      {"measurement": "antiproliferation activity against HL-60 cells", "setting": "[2]", "result": "exhibited antiproliferation activities"},
      {"measurement": "IC50", "setting": "[2]; Homo sapiens, HL-60 cells, read-out: IC50, concentration at which 50% of the proliferation is inhibited", "result": 0.86, "unit": "mM"},
      {"measurement": "final concentration at which condensation of nuclei, shrinking of cells and formation of apoptotic bodies were observed", "setting": "[3]", "result": "≥ 5", "unit": "mM"},
      {"measurement": "final concentration at which DNA fragmentation was observed", "setting": "[4]; 24 hours", "result": "≥ 5", "unit": "mM"},
      {"measurement": "final concentration at which DNA fragmentation was observed", "setting": "[4]; 48 hours", "result": "≥ 1", "unit": "mM"},
      {"measurement": "IC50", "setting": "[5]; 24 hours", "result": 18.1, "unit": "mM"},
      {"measurement": "IC50", "setting": "[5]; 48 hours", "result": 3.4, "unit": "mM"},
      {"measurement": "conversion into DGE (spot with Rf value of 0.5, the same value as DGE)", "setting": "[6]", "result": "conversion into DGE was also observed"}
    ]}
  ]
}
